In the assay the test system is KB epidermoid carcinoma cells. The assay is described as follows: Cytotoxicity study of doxorubicin-loaded liposomes (Guava ViaCount Assay). It is filed as cell-based. The conditions noted are these: Homo sapiens, 2 h exposure, further 48 h in fresh medium, viable cells counted by Guava ViaCount. As to the method:
Cytotoxictity assay were conducted using the Guava ViaCount Assay system.
Initially, acetylene-functionalized PCLs were prepared using propargyl-modified diamine cross-linkers. Azido-poly(ethylene glycol)-modified folates were then conjugated to the acetylene groups on the surface of PCLs catalyzed by Cu(I) (FIG. 9) to present folate groups on the PCL surface. The folate conjugation to doxorubicin-loaded PCLs indeed increased the drug efficacy against cancer cells as shown through an in vitro model study against KB epidermoid carcinoma cells.
KB cells were continuously cultured in folic acid-free medium supplemented with 10% heat-inactivated fetal bovine serum at 37° C. in a humidified atmosphere containing 5% CO2. The cells were seeded into several 48-well plates at 100,000 cells per well. The plates were then returned to the incubator and the cells were allowed to grow to confluence for 24 h. The media in the wells were replaced with the pre-prepared growth medium-drug-loaded PCL mixture (200 μL of solution at the appropriate Doxorubicin concentrations). The PCL-treated cell cultures were then further incubated for 2 h in a humidified atmosphere containing 5% CO2 at 37° C., after which the growth medium—drug-loaded PCL mixture was removed by aspiration. […] The viable cells were then counted by Guava ViaCount Assay.

For `COc1cccc2c1C(=O)c1c(O)c3c(c(O)c1C2=O)C[C@@](O)(C(=O)CO)C[C@@H]3O[C@H]1C[C@H](N)[C@H](O)[C@H](C)O1` [free DXR, doxorubicin], the IC50 came out at 100 nM.

Source of the values: US8821922B2, “Compositions and methods for polymer-caged liposomes” (Northwestern University, priority 2007, dated 2014).
